Assay results as given in ChEMBL document CHEMBL1201862, “PubChem BioAssay data set” (2004).
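Exposure lasted 48 hours, with cells grown in 96-well plates and compounds tested at five concentrations. GI50: concentration for 50% inhibition of growth.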 Active and inactive are the calls of the source. Rule as the data show it: active = GI50 up to about 1.1 µM and inactive = higher. Where a SMILES comes first, the peptide text is derived from it. The star is where a group is joined. Boc = CC(C)(C)OC(=O)*; tBu = CC(C)(C)*

Assays:
Assay in all cases: DTP human tumour cell line panel, 48 h
[1] = tested on: KM12
[2] = tested on: HCT-15
[3] = tested on: SNB-75
[4] = tested on: SK-MEL-28
[5] = tested on: MDA-MB-231
[6] = tested on: ACHN
[7] = tested on: Hs-578T
[8] = tested on: SF-539
[9] = tested on: TK-10
[10] = tested on: SN12C
[11] = tested on: UACC-62
[12] = tested on: CCRF-CEM
[13] = tested on: A549
[14] = tested on: UACC-257
[15] = tested on: SK-OV-3
[16] = tested on: NCI/ADR-RES
[17] = tested on: Malme-3M
[18] = tested on: T47D
[19] = tested on: A498

`O=c1c(S(=O)(=O)Oc2ccccc2)coc2cc(F)ccc12` was tested, and the GI50 [1] was > 100 µM (inactive), the GI50 [2] was greater than 100 µM and the GI50 [3] was 30.9 µM (inactive). The GI50 [4] was > 100 µM (inactive), the GI50 [5] was > 100 µM (inactive) and the GI50 [6] was > 100 µM (inactive). The GI50 [7] was 26.2 µM (inactive), the GI50 [8] was > 100 µM (inactive) and the GI50 [9] was > 100 µM (inactive). For the same compound, the GI50 [10] was > 100 µM (inactive), the GI50 [11] was 60 µM (inactive) and the GI50 [12] was 65.3 µM (inactive). The GI50 [13] was > 100 µM (inactive), the GI50 [14] was > 100 µM (inactive) and the GI50 [15] was > 100 µM (inactive). The GI50 [16] was 32.4 µM (inactive), the GI50 [17] was > 100 µM (inactive) and the GI50 [18] was 55 µM (inactive).

For `COc1cc(O)cc(O)c1C(=O)CC(Cl)(Cl)Cl`, the GI50 [1] was > 100 µM (inactive), the GI50 [2] was greater than 100 µM and the GI50 [4] was > 100 µM (inactive). The GI50 [5] was > 100 µM (inactive), the GI50 [6] was > 100 µM (inactive) and the GI50 [7] was > 100 µM (inactive). The GI50 [8] was > 100 µM (inactive), the GI50 [9] was > 100 µM (inactive) and the GI50 [10] was > 100 µM (inactive). For the same compound, the GI50 [11] was > 100 µM (inactive), the GI50 [19] was > 100 µM (inactive) and the GI50 [12] was > 100 µM (inactive). For the same compound, the GI50 [13] was > 100 µM (inactive), the GI50 [14] was > 100 µM (inactive) and the GI50 [15] was > 100 µM (inactive). The GI50 [16] was > 100 µM (inactive), the GI50 [17] was > 100 µM (inactive) and the GI50 [18] was > 100 µM (inactive).

With `CCCCSC1=N/C(=C\c2ccco2)C(Cl)=N1` the GI50 [1] was > 100 µM (inactive), the GI50 [2] was greater than 100 µM and the GI50 [3] was > 100 µM (inactive). For the same compound, the GI50 [4] was > 100 µM (inactive), the GI50 [5] was > 100 µM (inactive) and the GI50 [6] was > 100 µM (inactive). For the same compound, the GI50 [7] was > 100 µM (inactive), the GI50 [9] was > 100 µM (inactive) and the GI50 [10] was > 100 µM (inactive). For the same compound, the GI50 [11] was > 100 µM (inactive), the GI50 [19] was > 100 µM (inactive) and the GI50 [12] was > 100 µM (inactive). The GI50 [13] was > 100 µM (inactive), the GI50 [14] was > 100 µM (inactive) and the GI50 [15] was > 100 µM (inactive). For the same compound, the GI50 [16] was > 100 µM (inactive), the GI50 [17] was > 100 µM (inactive) and the GI50 [18] was > 100 µM (inactive).

With `Cc1nn(C(=O)c2ccncc2)c2c1C(c1ccccc1)SC(=N)N2` (centres undefined) the GI50 [1] was > 10 µM (inactive), the GI50 [2] was greater than 10 µM and the GI50 [3] was > 10 µM (inactive). The GI50 [4] was > 10 µM (inactive), the GI50 [5] was > 10 µM (inactive) and the GI50 [6] was > 10 µM (inactive). For the same compound, the GI50 [7] was > 10 µM (inactive), the GI50 [8] was > 10 µM (inactive) and the GI50 [9] was > 10 µM (inactive). For the same compound, the GI50 [10] was > 10 µM (inactive), the GI50 [11] was > 10 µM (inactive) and the GI50 [12] was > 10 µM (inactive). The GI50 [13] was > 10 µM (inactive), the GI50 [14] was > 10 µM (inactive) and the GI50 [15] was > 10 µM (inactive). For the same compound, the GI50 [16] was > 10 µM (inactive), the GI50 [17] was > 10 µM (inactive) and the GI50 [18] was > 10 µM (inactive).

For `C=CCCC(On1c(-c2ccc(Cl)cc2)csc1=S)c1ccccc1` (centres undefined), the GI50 [1] was 26.5 µM (inactive), the GI50 [2] was 8.05 µM and the GI50 [4] was 85.3 µM (inactive). The GI50 [5] was 68.9 µM (inactive), the GI50 [6] was 83.6 µM (inactive) and the GI50 [7] was 34.4 µM (inactive). The GI50 [8] was 26.9 µM (inactive), the GI50 [9] was 83.4 µM (inactive) and the GI50 [10] was 47.3 µM (inactive). The GI50 [11] was 36.7 µM (inactive), the GI50 [19] was > 100 µM (inactive) and the GI50 [12] was 12.4 µM (inactive). The GI50 [13] was 31.2 µM (inactive), the GI50 [14] was 33 µM (inactive) and the GI50 [16] was 13.7 µM (inactive). The GI50 [17] was 14.6 µM (inactive) and the GI50 [18] was 17 µM (inactive).

With `CC(c1ccccc1)N1CCN(C(C)c2ccccc2)CC1` (centres undefined) the GI50 [1] was > 100 µM (inactive), the GI50 [2] was 57.1 µM and the GI50 [4] was 29 µM (inactive). For the same compound, the GI50 [5] was > 100 µM (inactive), the GI50 [6] was > 100 µM (inactive) and the GI50 [7] was > 100 µM (inactive). For the same compound, the GI50 [9] was > 100 µM (inactive), the GI50 [10] was > 100 µM (inactive) and the GI50 [11] was 40.8 µM (inactive). The GI50 [19] was 77.4 µM (inactive), the GI50 [13] was > 100 µM (inactive) and the GI50 [14] was 68.7 µM (inactive). For the same compound, the GI50 [16] was > 100 µM (inactive), the GI50 [17] was 56.6 µM (inactive) and the GI50 [18] was > 100 µM (inactive).

With `O=C(O)CCC(NC(=O)c1ccc(Oc2nc3ccccc3nc2C(=O)O)cc1)C(=O)O` (centres undefined) the GI50 [1] was > 100 µM (inactive), the GI50 [2] was greater than 100 µM and the GI50 [3] was > 100 µM (inactive). The GI50 [4] was > 100 µM (inactive), the GI50 [5] was > 100 µM (inactive) and the GI50 [6] was > 100 µM (inactive). For the same compound, the GI50 [7] was > 100 µM (inactive), the GI50 [9] was > 100 µM (inactive) and the GI50 [11] was > 100 µM (inactive). For the same compound, the GI50 [19] was > 100 µM (inactive), the GI50 [12] was > 100 µM (inactive) and the GI50 [13] was > 100 µM (inactive). For the same compound, the GI50 [14] was > 100 µM (inactive), the GI50 [15] was > 100 µM (inactive) and the GI50 [16] was > 100 µM (inactive). For the same compound, the GI50 [17] was > 100 µM (inactive) and the GI50 [18] was > 100 µM (inactive).

In the case of `CN(C)CCNc1nc2c(c(=O)n(C)c(=O)n2C)n1C`, the GI50 [1] is reported as > 100 µM (inactive), the GI50 [2] is reported as greater than 100 µM and the GI50 [4] is reported as > 100 µM (inactive). For the same compound, the GI50 [5] was > 100 µM (inactive), the GI50 [6] was > 100 µM (inactive) and the GI50 [7] was > 100 µM (inactive). The GI50 [8] was > 100 µM (inactive), the GI50 [9] was > 100 µM (inactive) and the GI50 [10] was > 100 µM (inactive). For the same compound, the GI50 [11] was > 100 µM (inactive), the GI50 [19] was > 100 µM (inactive) and the GI50 [12] was > 100 µM (inactive). For the same compound, the GI50 [13] was > 100 µM (inactive), the GI50 [14] was > 100 µM (inactive) and the GI50 [15] was > 100 µM (inactive). For the same compound, the GI50 [16] was > 100 µM (inactive), the GI50 [17] was > 100 µM (inactive) and the GI50 [18] was > 100 µM (inactive).

`COc1cc(CCN)c(OC)c(OC)c1` was tested, and the GI50 [1] was > 100 µM (inactive), the GI50 [2] was greater than 100 µM and the GI50 [3] was > 100 µM (inactive). For the same compound, the GI50 [4] was > 100 µM (inactive), the GI50 [5] was > 100 µM (inactive) and the GI50 [6] was > 100 µM (inactive). The GI50 [7] was > 100 µM (inactive), the GI50 [9] was > 100 µM (inactive) and the GI50 [10] was > 100 µM (inactive). The GI50 [11] was > 100 µM (inactive), the GI50 [19] was > 100 µM (inactive) and the GI50 [12] was 34.8 µM (inactive). The GI50 [13] was > 100 µM (inactive), the GI50 [14] was > 100 µM (inactive) and the GI50 [15] was > 100 µM (inactive). For the same compound, the GI50 [16] was > 100 µM (inactive), the GI50 [17] was > 100 µM (inactive) and the GI50 [18] was > 100 µM (inactive).

For `CCOC(=O)c1nc2ccc(C(F)(F)F)cc2[nH]c1=O`, the GI50 [1] was > 100 µM (inactive), the GI50 [2] was greater than 100 µM and the GI50 [4] was > 100 µM (inactive). The GI50 [5] was > 100 µM (inactive), the GI50 [6] was > 100 µM (inactive) and the GI50 [7] was 82 µM (inactive). The GI50 [8] was > 100 µM (inactive), the GI50 [9] was > 100 µM (inactive) and the GI50 [10] was > 100 µM (inactive). For the same compound, the GI50 [11] was > 100 µM (inactive), the GI50 [19] was > 100 µM (inactive) and the GI50 [12] was > 100 µM (inactive). For the same compound, the GI50 [13] was > 100 µM (inactive), the GI50 [14] was > 100 µM (inactive) and the GI50 [15] was > 100 µM (inactive). For the same compound, the GI50 [16] was > 100 µM (inactive) and the GI50 [18] was > 100 µM (inactive).

With `CCCCOc1ccc(S(=O)(=O)N/C(=N\O)Nc2ccc(Cl)cc2)cc1` the GI50 [1] was 16.6 µM (inactive), the GI50 [2] was 14.6 µM and the GI50 [4] was 18.2 µM (inactive). For the same compound, the GI50 [5] was 16.4 µM (inactive), the GI50 [6] was 14.9 µM (inactive) and the GI50 [7] was 23.2 µM (inactive). For the same compound, the GI50 [8] was 20.8 µM (inactive), the GI50 [9] was 15 µM (inactive) and the GI50 [10] was 17.3 µM (inactive). For the same compound, the GI50 [11] was 15.2 µM (inactive), the GI50 [19] was 13.4 µM (inactive) and the GI50 [12] was 19 µM (inactive). For the same compound, the GI50 [13] was 16.1 µM (inactive), the GI50 [14] was 15.5 µM (inactive) and the GI50 [16] was 15.8 µM (inactive). For the same compound, the GI50 [17] was 17.7 µM (inactive) and the GI50 [18] was 6.64 µM (inactive).

In the case of `CC(OC(C)(C)C)C(NC(=O)C(N)CCCCNC(=O)OC(C)(C)C)C(=O)NC(Cc1ccccc1)C(=O)O` (centres undefined) (H-Lys(Boc)-Thr(tBu)-Phe-OH; configuration not given here), the GI50 [1] is reported as > 100 µM (inactive), the GI50 [2] is reported as greater than 100 µM and the GI50 [3] is reported as > 100 µM (inactive). The GI50 [4] was > 100 µM (inactive), the GI50 [5] was > 100 µM (inactive) and the GI50 [6] was > 100 µM (inactive). The GI50 [7] was > 100 µM (inactive), the GI50 [8] was > 100 µM (inactive) and the GI50 [9] was > 100 µM (inactive). The GI50 [10] was > 100 µM (inactive), the GI50 [11] was > 100 µM (inactive) and the GI50 [12] was > 100 µM (inactive). The GI50 [13] was > 100 µM (inactive), the GI50 [14] was > 100 µM (inactive) and the GI50 [15] was 15.2 µM (inactive). The GI50 [16] was > 100 µM (inactive), the GI50 [17] was > 100 µM (inactive) and the GI50 [18] was > 100 µM (inactive).
